Measurements reported in ChEMBL document CHEMBL4834424, “Targeting Chikungunya Virus Replication by Benzoannulene Inhibitors” (J Med Chem, 2021).
Converted amounts (≈) assume the structure as drawn.

What was measured:
[1] = (§1) Cytotoxicity against human NHDF cells assessed as cell viability measured after 24 hrs by Cell Titer Glo luminescent assay; type: cell-based; details: NHDF cells
Chikungunya virus [2] = assay: (§2) Antiviral activity against CHIKV infected in human NHDF cells assessed as reduction in virus titer in cell supernatant by measuring inhibition of plaque formation using Vero cells pretreated with NHDF cells followed by infected with virus incubated for 24 hrs and measured following infection of supernatants with Vero cells for 48 hrs by plaque based methylene blue dye analysis; type: functional, organism-based
Chikungunya virus [3] = assay: as §2, with “Vero cells at 10 uM pretreated with” for “Vero cells pretreated with”; type: functional; details: time 72 hrs
[4] = molecular target: Dihydroorotate dehydrogenase (quinone), mitochondrial (Homo sapiens, UniProt Q02127)
Sequence of Dihydroorotate dehydrogenase (quinone), mitochondrial (Q02127 whole entry): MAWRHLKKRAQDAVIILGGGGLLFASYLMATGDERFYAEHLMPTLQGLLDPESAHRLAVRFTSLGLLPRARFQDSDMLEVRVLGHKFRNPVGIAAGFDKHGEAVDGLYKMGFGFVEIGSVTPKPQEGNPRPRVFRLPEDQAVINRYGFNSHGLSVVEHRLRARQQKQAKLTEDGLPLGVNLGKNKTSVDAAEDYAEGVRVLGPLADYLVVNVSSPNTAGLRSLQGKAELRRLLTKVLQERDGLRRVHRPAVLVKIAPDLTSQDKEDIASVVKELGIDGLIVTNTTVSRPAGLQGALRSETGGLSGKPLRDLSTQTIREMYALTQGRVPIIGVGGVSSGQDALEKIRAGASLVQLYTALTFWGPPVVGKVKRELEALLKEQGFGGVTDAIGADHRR

[5] = Aqueous solubility of the compound; type: physicochemical
[6] = Metabolic stability in mouse liver microsomes assessed as half life in presence of NADPH incubated up to 45 mins by LC-MS/MS analysis; type: ADME, Microsome; parameters: unit not given here; details: for half-life: liver microsomes; for t1/2: microsomes, 0.75 h
[7] = Octanol-aqueous buffer distribution coefficient, log D of the compound by LC-MS analysis; type: physicochemical
[8] = Metabolic stability in human liver microsomes assessed as half life in presence of NADPH incubated up to 45 mins by LC-MS/MS analysis; type: ADME, Microsome
West Nile virus = assay: (§3) Antiviral activity against West nile virus infected in HEK293 cells assessed as reduction in virus titer in cell supernatant by measuring inhibition of plaque formation using Vero cells at 10 uM measured following infection of supernatants with Vero cells for 48 hrs pi by serial dilution plaque based methylene blue dye analysis; type: functional
dengue virus type 2 = assay: as §3, with “DENV2” for “West nile virus”; type: functional
[9] = system: Venezuelan equine encephalitis virus; assay: Antiviral activity against Venezuelan equine encephalitis virus TC83 infected in Asian tiger mosquito C6/36 cells assessed as reduction in virus titer in cell supernatant by measuring inhibition of plaque formation using Vero cells and measured following infection of supernatants with Vero cells for 48 hrs pi by serial dilution plaque based methylene blue dye analysis; type: functional
Chikungunya virus [10] = type: functional; details: 181-25, C6, time 48 hrs
NHDF = assay: as §1; type: cell-based; details: nhdf, 24 h

SMILES | CC50 at 24 h [1] [µM] | EC50 (Chikungunya virus [2]) [µM] | log(activity) (Chikungunya virus [3]) | solubility ([5]; aqueous, read-out: solubility) [µM] | half-life [6] | logD [7] | half-life [8] [days] | also measured
COc1cc2c(cc1NC(=O)c1ccc(C(C)(C)C)cc1)CCCC(=O)N2C(C)C | > 30 | 5.1 | 1.7 |  |  |  |  | 
COCCOc1cc2c(cc1NC(=O)c1ccc(C(C)(C)C)cc1)CCCCC2 | > 30 |  | 0 |  |  |  |  | 
COc1cc2c(cc1NC(=O)c1ccc(C3(O)CCC3)cc1)CCCCC2 | > 30 |  | <1 |  |  |  |  | 
CC(C)(C)c1ccc(C(=O)Nc2cc3c(cc2C(F)(F)F)CCCCC3)cc1 | > 30 |  | 0 |  |  |  |  | 
CCOc1cc2c(cc1NC(=O)c1ccc(C(C)(C)C)cc1)CCC2 | > 30 | 6.23 | 1 |  |  |  |  | 
COc1cc2c(cc1C(=O)Nc1ccc(C(C)(C)O)cc1)CCCCC2 | > 30 | 8 | 1.6 |  |  |  |  | IC50 [4]: 24.1 µM
COc1cc2c(cc1NC(=O)c1ccc(C(C)(C)C#N)cc1)CCCCC2 | > 30 | 1.6 | 1.7 | 35 (≈ 12.7 µg/mL) | 720 | 4 | 2.12 | 
COc1cc2c(cc1NC(=O)c1ccc(C(C)(C)C)cc1)CCCC(=O)N2 | > 30 |  | <1 |  |  |  |  | 
COc1nc2c(cc1C(=O)Nc1ccc(C(C)(C)C)cc1)CCCCC2 | > 30 |  | 1.3 | 1.8 (≈ 0.634 µg/mL) | 2700 | 4.6 | 4.25 | 
COc1cc2c(cc1NC(=O)c1ccc(C(O)(C(F)(F)F)C(F)(F)F)cc1)CCCCC2 | > 30 | 2.8 | 3.1 | < 1 | 660 | 5 | 2.92 | 
COc1cc2c(cc1NC(=O)c1ccc(C(C)(C)C(F)(F)F)cc1)CCCCC2 | > 30 | 3.47 | 1.8 | < 1 | 2100 | 6 | 4.42 | 
CC(C)(C)c1ccc(C(=O)Nc2cc3c(cc2F)CCCCC3)cc1 | > 30 | 0.8 | 4.9 | 33 (≈ 11.2 µg/mL) |  | 4 | 1.17 | t1/2 [6]: 4
COc1nc2c(cc1C(=O)Nc1ncc(C(C)(C)C)cn1)CCCCC2 | > 30 | 9 | 1.95 |  | 1620 | 3 | 2.79 | solubility ([5]; buffer): 64 µM (≈ 22.7 µg/mL)
COc1cc2c(cc1NC(=O)c1ccc(C(C)(C)C)cc1)CCCCN2C | > 30 |  | <1 |  |  |  |  | 
COc1nc2c(cc1NC(=O)c1ccc(C(C)(C)C)cc1)CCCC2 | > 30 | 2.3 | 6.7 |  |  |  |  | 
CC(C)(C)c1ccc(C(=O)Nc2cc3c(cc2[N+](=O)[O-])CCCCC3)cc1 | > 30 |  | 0 |  |  |  |  | 
COc1cc2c(cc1C(=O)Nc1ccc(C(C)(C)C)cc1)CCCCC2 | > 30 | 0.48 | 3.2 | 0.5 (≈ 0.176 µg/mL) |  | 4 | 4.12 | log(activity) (West Nile virus): 1.7; log(activity) (dengue virus type 2): 1.9; IC50 [4]: 3 µM; EC90 [9]: 2900 nM; EC90 (Chikungunya virus [10]): 1600 nM
CC(C)(C)c1ccc(C(=O)Nc2cc3c(cc2CO)CCCCC3)cc1 | > 30 |  | <1 | < 1 | 1320 | 4 | 2.67 | 
CC(C)(C)c1ccc(NC(=O)c2cc3c(cc2OC(F)F)CCCCC3)cc1 | > 30 |  | 1.4 |  | 660 | 5 | 2.92 | 
COc1cc2c(cc1NC(=O)c1ccc(C(C)(C)CO)cc1)CCCCC2 | > 30 | 7.12 | 3.1 |  |  |  |  | 
CC(C)(C)c1ccc(C(=O)Nc2cc3c(cc2C#N)CCCCC3)cc1 | > 30 | 4.4 | 1.8 | < 1 | 1860 | 5 | 3.17 | 
CC(C)(C)c1ccc(C(=O)Nc2cc3c(cc2N)CCCCC3)cc1 | > 30 |  | 0 |  |  |  |  | 
COc1cc2c(nc1NC(=O)c1ccc(C(C)(C)C)cc1)CCCCC2 | > 30 | 0.59 | 3.18 |  |  |  |  | 
CC(C)(C)c1ccc(C(=O)Nc2ccc3c(c2)CCCCC3)cc1 | > 30 | 0.7 | 3.9 |  | 1380 | 4 | 1.38 | solubility ([5]; buffer): 35 µM (≈ 11.3 µg/mL)
Cc1cc2c(cc1NC(=O)c1ccc(C(C)(C)C)cc1)CCCCC2 | > 30 | 2.41 | 3.5 | < 1 | 660 | 4 | 2.62 | 

SMILES | CC50 at 24 h [1] [µM] | EC50 (Chikungunya virus [2]) [µM] | log(activity) (Chikungunya virus [3]) | solubility ([5]; aqueous, read-out: solubility) [µM] | half-life [6] | logD [7] | half-life [8] [days] | also measured
CCOc1cc2c(cc1NC(=O)c1ccc(C(C)(C)C)cc1)CCCC2 |  | 7.78 | 1 |  |  |  |  | CC50 (NHDF): 3.86 µM
CCOc1cc2c(cc1NC(=O)c1ccc(C(C)(C)C)cc1)CCCCC2 | > 30 | 5.19 | 2.2 |  |  |  |  | 
COc1cc2c(nc1NC(=O)c1ccc(C(C)(C)C)cn1)CCCCC2 | > 30 | 2.9 | 4.05 |  |  |  |  | IC50 [4]: > 30 µM
CCCOc1cc2c(cc1NC(=O)c1ccc(C(C)(C)C)cc1)CCCCC2 | > 30 | 7.05 | 1 |  |  |  |  | 
COc1cc2c(cc1NC(=O)c1ccc(C3(C(F)(F)F)CC3)cc1)CCCCC2 | > 30 | 1.3 | 1 | < 1 | 1320 | 6 | 2.79 | 
CC(C)(C)c1ccc(C(=O)Nc2cc3c(cc2OCc2ccccn2)CCCCC3)cc1 |  |  | <1 |  |  |  |  | CC50 (NHDF): 9.4 µM
COc1cc2c(cc1NC(=O)c1ccc(C(C)(C)O)cc1)CCCCC2 | > 30 | 2.45 | 1.6 | 8 (≈ 2.83 µg/mL) | 1140 | 4 | 10.6 | 
COc1cc2c(nc1NC(=O)c1ccc(C(C)(C)C)cc1)CCCC2 | > 30 |  | 1.3 |  |  |  |  | 
COc1cc2c(cc1C(=O)Nc1ccc(C(C)(C)C)cn1)CCCCC2 |  |  |  |  |  |  |  | IC50 [4]: > 30 µM
[2H]C([2H])([2H])Oc1cc2c(cc1NC(=O)c1ccc(C(C)(C)C)cc1)CCCCC2 | > 30 | 1 | 23 | 28 (≈ 9.93 µg/mL) |  | 3 | 1.29 | 
CC(C)(C)c1ccc(C(=O)Nc2cc3c(cc2OCc2ccccn2)CCC3)cc1 | > 30 | 9 | 1.2 |  |  |  |  | 
CCOc1cc2c(cc1C(=O)Nc1ccc(C(C)(C)C)cc1)CCCCC2 | > 30 | 3.8 | 1.5 |  |  |  |  | 
CC(C)(C)c1ccc(C(=O)Nc2cc3c(cc2OC(F)(F)F)CCCCC3)cc1 | > 30 | 3.7 |  |  |  | 5 |  | solubility ([5]; buffer): 8 µM (≈ 3.24 µg/mL); t1/2 [6]: 127
CC(=O)Oc1cc2c(cc1NC(=O)c1ccc(C(C)(C)C)cc1)CCCCC2 | > 30 | 2.8 | 52 | < 1 |  | 5 | 0.292 | 
COc1nc2c(cc1C(=O)Nc1ccc(C(C)(C)C)cn1)CCCCC2 | > 30 |  | 0.27 | < 1 | 3960 | > 4.7 | 3.67 | 
CCc1cc2c(cc1C(=O)Nc1ccc(C(C)(C)C)cc1)CCCCC2 | > 30 |  | 0.2 |  |  |  |  | 
COc1cc2c(cc1C(=O)Nc1cc(C(C)(C)C)[nH]n1)CCCCC2 |  |  |  |  |  |  |  | IC50 [4]: > 30 µM
CC(C)(C)c1ccc(C(=O)Nc2cc3c(cc2O)CCCCC3)cc1 | > 30 | 0.4 | 3.5 |  | 1860 | 5 | 3.08 | IC50 [4]: > 30 µM; solubility ([5]; buffer): 1 µM (≈ 0.337 µg/mL)
COc1cc2c(cc1NC(=O)c1ccc(C(C)(C)C)cc1)CCCCN2 | > 30 | 3.3 | 3.9 |  |  |  |  | 
CC(C)(C)c1ccc(NC(=O)c2cc3c(cc2O)CCCCC3)cc1 | > 30 | 1.54 | 3.3 | < 1 | 4680 | 4.2 | 2.04 | IC50 [4]: > 30 µM
CCc1cc2c(cc1NC(=O)c1ccc(C(C)(C)C)cc1)CCCCC2 | > 30 | 1.7 | 4.9 | < 1 | 660 | 5 | 1.54 | IC50 [4]: > 30 µM
COc1cc2c(cc1NC(=O)c1ccc(C(C)(C)C)cc1)CCC2 | > 30 |  | <1 |  |  |  |  | 
COc1cc2c(cc1C(=O)Nc1ccc(-c3cc[nH]n3)cc1)CCCCC2 | > 30 | 3.4 | 5.9 |  |  |  |  | 
CC(C)(C)c1ccc(C(=O)Nc2cc3c(cc2OCc2ccccn2)CCCC3)cc1 | > 30 | 9.1 | 1.1 |  |  |  |  | 
